Laboratory results as given in a compilation of properties of binary mixtures (doi:10.1016/j.fluid.2020.112621).

Test: xn = mol fraction of the nth substance listed
Conditions: 101 kPa

CCCC[n+]1ccn(C)c1.COP(=O)([O-])OC + CCCC(=O)[O-].CC[NH+](CC)CCO
x2 = 0
Conditions	viscosity [mPa·s]
278.15 K	3503
283.15 K	2142
288.15 K	1361.1
293.15 K	895
303.15 K	426
308.15 K	305.8
313.15 K	224.9
323.15 K	129.4
333.15 K	79.9
338.15 K	64.25
343.15 K	52.35
353.15 K	36.02
358.15 K	30.38
363.15 K	25.86
368.15 K	22.22

CCCCCC(=O)O.CCCCCC(=O)[O-].CC[NH+](CC)CCO + CCCC[n+]1ccn(C)c1.COP(=O)([O-])OC
viscosity [mPa·s]
Conditions	x1 = 0.0684	x1 = 0.1429	x1 = 0.2213	x1 = 0.3088	x1 = 0.3966	x1 = 0.4995	x1 = 0.6088	x1 = 0.7258	x1 = 0.8535	x1 = 1
278.15 K	2021	1198.1	–	529	412	343	–	255.9	217.2	179
283.15 K	–	787	520	365	288.7	–	211.6	–	159	132.6
288.15 K	841	535	–	–	207.7	176.1	155.1	137.2	118.9	–
293.15 K	570	374	259.3	189.1	152.9	–	116	103.5	–	76.9
298.15 K	398	268.2	–	–	114.9	98.9	88.5	79.5	70.1	60
303.15 K	285.4	197.1	–	107	88.1	76.3	–	62.1	55.1	–
308.15 K	209.4	–	108.8	82.8	68.7	59.9	54.11	49.21	43.94	38.14
313.15 K	–	113.2	84.6	–	54.51	47.69	43.28	39.55	35.51	31
318.15 K	120	88.2	66.9	52.14	–	38.54	35.09	32.2	–	25.48
323.15 K	93.3	69.8	53.69	42.29	–	31.55	28.81	26.52	24.02	21.16
328.15 K	73.8	56.08	43.7	34.74	29.57	–	23.92	22.08	20.07	–
333.15 K	59.25	45.69	36.01	28.88	24.7	21.89	20.08	18.56	16.93	15.02
338.15 K	–	37.68	–	24.28	20.85	18.53	17.01	15.76	14.4	–
343.15 K	–	31.44	–	–	17.77	15.82	14.54	13.48	12.35	11.01
348.15 K	33.12	26.52	21.54	17.66	15.28	13.63	12.53	11.63	10.67	–
353.15 K	27.9	22.58	–	15.27	13.25	–	10.89	–	9.27	–
358.15 K	23.74	19.41	–	13.3	11.58	10.34	9.52	8.84	8.11	–
363.15 K	20.39	16.82	13.98	11.67	10.19	9.1	8.38	7.77	7.13	6.36
368.15 K	17.66	14.68	12.3	10.31	–	8.06	7.42	6.87	6.3	5.61
373.15 K	15.41	12.91	–	9.17	8.04	7.18	6.6	6.11	5.59	4.96

CCCC[n+]1ccn(C)c1.COP(=O)([O-])OC + CC(=O)O.CC(=O)[O-].CC[NH+](CC)CCO
x2 = 0
Conditions	viscosity [mPa·s]
278.15 K	3503
288.15 K	1361.1
293.15 K	895
303.15 K	426
308.15 K	305.8
313.15 K	224.9
318.15 K	168.9
323.15 K	129.4
328.15 K	100.9
333.15 K	79.9
338.15 K	64.25
343.15 K	52.35
348.15 K	43.18
363.15 K	25.86
368.15 K	22.22
373.15 K	19.25
